One test concerns the target T1, human TLR7 (Homo sapiens, UniProt Q9NYK1).
T1 construct: host or cells: HEK293
T1 sequence (Q9NYK1 27-1049): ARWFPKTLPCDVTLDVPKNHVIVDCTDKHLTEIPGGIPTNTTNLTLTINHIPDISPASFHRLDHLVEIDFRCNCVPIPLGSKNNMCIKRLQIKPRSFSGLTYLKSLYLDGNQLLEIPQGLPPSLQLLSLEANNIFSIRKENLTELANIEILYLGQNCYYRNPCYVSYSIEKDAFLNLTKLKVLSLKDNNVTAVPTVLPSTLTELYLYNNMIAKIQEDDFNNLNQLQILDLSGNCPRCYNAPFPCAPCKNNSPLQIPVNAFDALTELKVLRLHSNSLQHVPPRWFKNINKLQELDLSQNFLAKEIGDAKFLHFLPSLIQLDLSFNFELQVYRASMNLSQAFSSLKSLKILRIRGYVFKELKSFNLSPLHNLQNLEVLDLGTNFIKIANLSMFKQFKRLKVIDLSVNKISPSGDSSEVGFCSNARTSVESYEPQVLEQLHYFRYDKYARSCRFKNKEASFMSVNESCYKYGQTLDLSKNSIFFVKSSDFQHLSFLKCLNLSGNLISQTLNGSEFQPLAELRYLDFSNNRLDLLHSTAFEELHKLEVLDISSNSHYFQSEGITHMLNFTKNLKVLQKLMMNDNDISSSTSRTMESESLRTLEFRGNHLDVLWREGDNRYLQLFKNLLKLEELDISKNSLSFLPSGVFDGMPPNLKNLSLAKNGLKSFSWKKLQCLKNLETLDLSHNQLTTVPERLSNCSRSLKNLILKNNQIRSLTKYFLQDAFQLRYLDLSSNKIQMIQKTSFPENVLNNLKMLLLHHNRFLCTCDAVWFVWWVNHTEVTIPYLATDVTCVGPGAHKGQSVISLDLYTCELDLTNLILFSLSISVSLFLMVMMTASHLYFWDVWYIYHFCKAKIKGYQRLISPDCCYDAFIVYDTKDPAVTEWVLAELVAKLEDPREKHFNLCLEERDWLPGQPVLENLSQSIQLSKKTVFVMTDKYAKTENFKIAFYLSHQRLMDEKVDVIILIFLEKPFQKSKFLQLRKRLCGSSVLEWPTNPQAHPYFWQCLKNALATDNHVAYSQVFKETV
The test can be described thus: TLR7 reporter cell assay (HEK293 cells stably expressing human TLR7 with NF-κB-driven SEAP reporter). It is filed as cell-based. Particulars: for EC50: fit of SEAP dose response, ymax from 28.5 μM resiquimod. From the text:
The engagement of TLRs by cognate ligands triggers downstream signaling cascades, leading to the activation of NF-κB and other transcription factors which initiate various immunomodulatory effects. The human embryonic kidney cell line, HEK293, is essentially non-responsive to TLR agonists, but ectopic expression of TLRs in these cells allows cognate agonists to activate endogenous NF-κB. Accordingly, the HEK293-TLR-NF-κB inducible reporter system is used to assay TLR agonists.
HEK293 cell lines stably expressing human TLR7 or TLR8 together with an NF-κB-driven-secreted alkaline phosphatase (SEAP) reporter were invented at InvivoGen (San Diego, California, USA) and used to assess compounds of the present invention for TLR7 and TLR8 agonist activities. Cells were seeded at 2-5×10^4 cells/well in 96 well plates (200 μl/well) and treated with various concentrations of compound (10 μl) for 15-24 hours. SEAP activity was determined by measuring OD at 650 nm; the media used to culture the cell lines contains the reagents required for SEAP detection. The EC50 values in Table 1 are calculated from fitting the dose response of measured SEAP activity for each compound to the following equation: Y=ymax*c^nh/(EC50^nh+c^nh)+blank where Y is the experimentally measured OD650 at concentration c of test article, blank is the observed OD650 in the absence of TLR7 agonist, ymax is the difference between the measured OD650 in the presence of 28.5 μM resiquimod and the blank and values of EC50 and nh are determined by nonlinear least squares analysis. Resiquimod is a known TLR7 and TLR8 agonist.
Compound A is 5-amino-3-((2R,3R,5S)-3-hydroxy-5-((S)-1-hydroxypropyl)tetrahydrofuran-2-yl)thiazolo[4,5-d]pyrimidine-2,7(3H,6H)-dione)

Test [1] deals with hPBMCs (Human Peripheral Blood Mononuclear Cells). Briefly: Induction of interferon-α in hPBMCs in vitro. It is filed as cell-based. Particulars: for Donor 1 IFNmax / Donor 2 IFNmax / Donor 3 IFNmax: maximum IFN at any concentration of the evaluated range; for Emax / minimal effective concentration: Homo sapiens, PBMC; for Emax: 24 h, peak IFNα2a as percentage of peak response of standard 2-Amino-7-(cyclopropylmethyl)-9-B-D-xylofuranosyl-7,9-dihydro-1H-purine-6,8-dione, averaged across donors, read-out: IFNrmax, Relative Maximal IFNα2a Production (%); for minimal effective concentration: minimal effective concentration for interferon-α production (generally at least 80 pg/ml above baseline), geometric mean across at least three donors, 24 hours, read-out: Weighted MEC. On the procedure:
Treatment of hPBMCs with a TLR7 agonist typically induces some production of interferon-α as well as lesser amounts of a variety of other cytokines and chemokines. A typical experiment uses hPBMCs isolated from a healthy donor and placed in replicate cell culture wells; typically 1.0-7.5×10^6 cells are placed in each well. A test compound is added and the cells are cultured for 24 hours at 37° C. in a humidified atmosphere containing 5% CO2 post-addition; untreated controls are included. Secreted interferon-α production is measured using an a multisubtype interferon-α ELISA kit like those from PBL Assay Sciences or specifically as IFNα2a as part of a panel of cytokines and chemokines using luminex methodologies.
The minimal effective concentration (MEC) is the minimum concentration in a dose response curve where a significant increase in interferon-α production (generally at least 80 pg/ml) is observed above baseline. MEC values for each compound are determined for at least three donors. The weighted MEC for each compound is the geometric mean of all individual MECs across all donors. Concentrations tested typically consist of a two-fold dilution series starting at 100 μM. In the calculation of weighted MEC, any individual MEC value greater the highest concentration tested is arbitrarily set to two times the highest concentration tested unless all MECs for a compound exceed this value. The maximal amount of IFNα2a for each donor is determined from dose dependence for each compound.
In order to normalize for variation in each hPBMC preparation, these values are first transformed by expressing as a percentage of peak response measured with a standard (2-Amino-7-(cyclopropylmethyl)-9-B-D-xylofuranosyl-7,9-dihydro-1H-purine-6,8-dione) and then averaging the results across all donors, this average referred to as IFNrmax.
IFNmax is the maximum amount of IFN observed at any concentration across the evaluated concentration range. MEC and IFNmax values for three select compound are shown for three donors (Table 3). The range of tested concentrations were 0.625-5 μM for Imiquimod, 3.125-100 μM for both Compound A and Compound 1, 12.5-100 μM for Compound 2.

The mark [2] stands for this setting: HEK293, 500 μM compound, SEAP activity (OD 650 nm) relative to 28.5 μM resiquimod, 15-24 hours, read-out: Response at 500 μM Compound as a Percent of Resiquimod Response.

This is an account of results in patent US12187759B2, “TLR7 agonists” (Primmune Therapeutics, Inc., priority 2019, dated 2025).

Molecules are shown by their SMILES. Like-named read-outs stand apart in the source and are kept apart here.

The term EC50 denotes the concentration needed to bring the measured effect to its halfway point. Read a low EC50 as an effect from little substance.

Consider `C#CCn1c(=O)n([C@@H]2O[C@H]([C@@H](O)CC)C[C@H]2O)c2nc(N)[nH]c(=O)c21` [Compound 1, 2-amino-9-((2R,3R,5S)-3-hydroxy-5-((S)-1-hydroxypropyl)tetrahydrofuran-2-yl)-7-(prop-2-yn-1-yl)-7,9-dihydro-1H-purine-6,8-dione], for which, on human TLR7 (setting [2]), the Emax at 500 µM was found to be 67%. At human TLR7 (15-24 hours), this molecule showed an EC50 of 103 µM. Also, in test [1] (Donor 1), the “Donor 1 IFNmax” value was 3775 pg/mL. Moreover, the “Donor 2 MEC” value in test [1] (interferon-α production) was determined as 6.25 µM. Besides, in test [1], the “Donor 2 IFNmax” value is 2129 pg/mL, the Emax was determined as 316% and the minimal effective concentration was ≤ 2.9 µM. For the same molecule, the “Donor 3 IFNmax” value in test [1] (Donor 3) is 5623 pg/mL. In test [1] (donor 1), the “IFNmax of Compound 1 relative to Compound A” value is on record as 3.6 fold and the “IFNmax of Compound 1 relative to imiquimod” value is 4.8 fold. In test [1] (donor 2), the “IFNmax of Compound 1 relative to Compound A” value was 4.4 fold and the “IFNmax of Compound 1 relative to imiquimod” value worked out at 11.0 fold. Also, in test [1] (donor 3), the “IFNmax of Compound 1 relative to Compound A” value was 2.5 fold and the “IFNmax of Compound 1 relative to imiquimod” value was found to be 4.2 fold. Besides, in test [1] (in every case (Donors 1, 2 and 3)), the “potency (MEC) of Compound 1 relative to Compound 2” value is reported as ≥ 16 fold.

For `C#CCn1c(=O)n([C@@H]2O[C@H]([C@H](O)CC)C[C@H]2O)c2nc(N)[nH]c(=O)c21` [Compound 2, 2-amino-9-((2R,3R,5S)-3-hydroxy-5-((R)-1-hydroxypropyl)tetrahydrofuran-2-yl)-7-(prop-2-yn-1-yl)-7,9-dihydro-1H-purine-6,8-dione], at human TLR7 (HEK293, read-out: Response at 500 μM Compound as a Percent of Resiquimod Response), the Emax at 500 µM is < 5%. In addition, in test [1] (Donor 1, interferon-α production), the “Donor 1 MEC” value was determined as 50 µM. The “Donor 1 IFNmax” value in test [1] (Donor 1) came to 4523 pg/mL. In addition, in test [1] (interferon-α production), the “Donor 2 MEC” value was >100 µM. The “Donor 2 IFNmax” value in test [1] was 9 pg/mL. In addition, in test [1] (Donor 3, interferon-α production), the “Donor 3 MEC” value came to 100 µM. Moreover, the “Donor 3 IFNmax” value in test [1] (Donor 3) came out at 3110 pg/mL.

In the case of `CC[C@H](O)[C@@H]1C[C@@H](O)[C@H](n2c(=O)n(CC3CC3)c3c(=O)[nH]c(N)nc32)O1` [Compound 4, 2-Amino-7-(cyclopropylmethyl)-9-((2R,3R,5S)-3-hydroxy-5-((S)-1-hydroxypropyl)tetrahydrofuran-2-yl)-7,9-dihydro-1H-purine-6,8-dione], at human TLR7 (setting [2]), the Emax at 500 µM amounted to 81%. At human TLR7 (15-24 hours), this molecule registered an EC50 of 132 µM. Besides, in test [1], the Emax is 226% and the minimal effective concentration is 12.5 µM.

As for `C=C=Cn1c(=O)n([C@@H]2O[C@H]([C@@H](O)CC)C[C@H]2O)c2nc(N)[nH]c(=O)c21` [Compound 8, 2-Amino-9-((2R,3R,5S)-3-hydroxy-5-((S)-1-hydroxypropyl)tetrahydrofuran-2-yl)-7-(propa-1,2-dien-1-yl)-7,9-dihydro-1H-purine-6,8-dione], at human TLR7 (setting [2]), the Emax at 500 µM is < 5%. In test [1], the Emax was 215% and the minimal effective concentration amounted to 5.4 µM.

Turning to `C#CCn1c(=O)n([C@@H]2O[C@H]([C@H](C)O)C[C@H]2O)c2nc(N)[nH]c(=O)c21` [Compound 9, 2-Amino-9-((2R,3R,5S)-3-hydroxy-5-((S)-1-hydroxyethyl)tetrahydrofuran-2-yl)-7-(prop-2-yn-1-yl)-7,9-dihydro-1H-purine-6,8-dione], the Emax at 500 µM on human TLR7 (setting [2]) is 58%. Besides, on human TLR7 (15-24 hours), a half-maximal effect (EC50) was put at 182 µM. In test [1], the Emax turned out to be 191% and the minimal effective concentration came to 6.2 µM.

`C#CCn1c(=O)n([C@@H]2O[C@H]([C@@H](O)CC)[C@H](F)[C@H]2O)c2nc(N)[nH]c(=O)c21` [Compound 13, 2-Amino-9-((2R,3S,4R,5R)-4-fluoro-3-hydroxy-5-((S)-1-hydroxypropyl)tetrahydrofuran-2-yl)-7-(prop-2-yn-1-yl)-7,9-dihydro-1H-purine-6,8-dione]: the Emax at 500 µM at human TLR7 (setting [2]) is 92%. This molecule displayed an EC50 at human TLR7 (15-24 hours) of 119 µM. Also, in test [1], the Emax was 353% and the minimal effective concentration was ≤ 3.3 µM.

For the molecule `C#CCn1c(=O)n([C@@H]2O[C@H]([C@@H](O)CO)C[C@H]2O)c2nc(N)[nH]c(=O)c21` [Compound 14, 2-Amino-9-((2R,3R,5S)-5-((S)-1,2-dihydroxyethyl)-3-hydroxytetrahydrofuran-2-yl)-7-(prop-2-yn-1-yl)-7,9-dihydro-1H-purine-6,8-dione], on human TLR7 (setting [2]), the Emax at 500 µM is < 5%. Besides, in test [1], the Emax was ≤ 10% and the minimal effective concentration was > 50 µM.

Take `C#CCn1c(=O)n([C@@H]2O[C@H]([C@@H](O)CN)C[C@H]2O)c2nc(N)[nH]c(=O)c21` [Compound 15, 2-Amino-9-((2R,3R,5S)-5-((S)-2-amino-1-hydroxyethyl)-3-hydroxytetrahydrofuran-2-yl)-7-(prop-2-yn-1-yl)-7,9-dihydro-1H-purine-6,8-dione]: at human TLR7 (setting [2]), the Emax at 500 µM is < 5%. For the same molecule, in test [1], the Emax was ≤ 10% and the minimal effective concentration was > 50 µM.

Regarding `C#CCn1c(=O)n([C@@H]2O[C@H]([C@@H](O)CNC)C[C@H]2O)c2nc(N)[nH]c(=O)c21` [Compound 16, 2-Amino-9-((2R,3R,5S)-3-hydroxy-5-((S)-1-hydroxy-2-(methylamino)ethyl)tetrahydrofuran-2-yl)-7-(prop-2-yn-1-yl)-7,9-dihydro-1H-purine-6,8-dione], at human TLR7 (setting [2]), the Emax at 500 µM was < 5%. In test [1], the Emax was ≤ 10% and the minimal effective concentration was > 50 µM.
